# Read-outs that look alike come from different tables or passages of the source.
# Legend:
# Format in all cases: cell-based
# NR2F6 = biological target: T1, NR2F6 (Homo sapiens, UniProt P10588); test: NR2F6 agonist screening, Firefly signal cmpd/DMSO
# T1 construct: expressed in transfected cells; also transient transfection
# T1 sequence (P10588 1-404): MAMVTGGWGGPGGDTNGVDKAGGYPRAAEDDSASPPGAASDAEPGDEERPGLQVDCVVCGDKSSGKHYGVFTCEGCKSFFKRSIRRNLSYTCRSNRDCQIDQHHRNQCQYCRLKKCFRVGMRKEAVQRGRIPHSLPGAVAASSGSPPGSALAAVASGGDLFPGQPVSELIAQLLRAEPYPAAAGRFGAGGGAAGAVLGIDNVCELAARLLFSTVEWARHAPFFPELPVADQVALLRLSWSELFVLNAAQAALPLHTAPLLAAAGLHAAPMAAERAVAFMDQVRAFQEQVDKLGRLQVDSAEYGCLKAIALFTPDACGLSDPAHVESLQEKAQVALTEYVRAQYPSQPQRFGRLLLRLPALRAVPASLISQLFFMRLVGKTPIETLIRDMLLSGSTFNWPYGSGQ
# HEK293 pGL4 = test: Firefly_pGL signal, cmpd/DMSO (pGL4 control cells); details: Homo sapiens
# NR2F6 LBD = biological target: T2, NR2F6 LBD (Homo sapiens, UniProt P10588); test: NR2F6 LBD transient transfection; details: LBD
# T2 construct: expressed in transfected cells
# T2 sequence (P10588 165-393 limits assumed): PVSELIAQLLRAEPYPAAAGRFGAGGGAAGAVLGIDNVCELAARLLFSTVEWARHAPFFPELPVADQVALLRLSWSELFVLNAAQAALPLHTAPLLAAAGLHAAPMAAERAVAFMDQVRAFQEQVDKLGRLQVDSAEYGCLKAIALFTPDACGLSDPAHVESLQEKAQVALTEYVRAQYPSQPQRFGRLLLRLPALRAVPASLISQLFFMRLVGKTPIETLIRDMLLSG
# Outline: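 LBD-transfected cells treated at 40, 10, 2 and 0.5 μM (4 replicates); cytotoxicity measured in parallel, normalized to DMSO (0%) and zero signal (100%). Higher concentrations excluded where signal loss reflected toxicity.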
# Renilla = Renilla signal in NR2F6 agonist screening, cmpd/DMSO; details: Renilla, F4
# [1] = HEK293, 0.5 uM, pGL4, read-out: Firefly pGL4, cmpd/DMSO (mean)
# [2] = HEK293, 2 uM, pGL4, read-out: Firefly pGL4, cmpd/DMSO (mean)
# [3] = HEK293, 10 uM, pGL4, read-out: Firefly pGL4, cmpd/DMSO (mean)
# [4] = HEK293, 40 uM, pGL4, read-out: Firefly pGL4, cmpd/DMSO (mean)
# [5] = HEK293, pGL4, 1% FBS, 0.5 uM, read-out: Firefly, pGL4, 1% FBS, cmpd/DMSO (mean)
# [6] = HEK293, pGL4, 1% FBS, 2 uM, read-out: Firefly, pGL4, 1% FBS, cmpd/DMSO (mean)
# [7] = HEK293, pGL4, 1% FBS, 10 uM, read-out: Firefly, pGL4, 1% FBS, cmpd/DMSO (mean)
# [8] = HEK293, pGL4, 1% FBS, 40 uM, read-out: Firefly, pGL4, 1% FBS, cmpd/DMSO (mean)
# [9] = HEK293, pGL4, 10% FBS, 0.5 uM, read-out: Firefly, pGL4, 10% FBS, cmpd/DMSO (mean)
# [10] = HEK293, pGL4, 10% FBS, 2 uM, read-out: Firefly, pGL4, 10% FBS, cmpd/DMSO (mean)
# [11] = HEK293, pGL4, 10% FBS, 10 uM, read-out: Firefly, pGL4, 10% FBS, cmpd/DMSO (mean)
# [12] = HEK293, pGL4, 10% FBS, 40 uM, read-out: Firefly, pGL4, 10% FBS, cmpd/DMSO (mean)
# [13] = read-out: Renilla, F4, cmpd/DMSO (mean)
# [14] = 1% FBS, read-out: Renilla, F4, 1% FBS, cmpd/DMSO (mean)
# [15] = 10% FBS, read-out: Renilla, F4, 10% FBS, cmpd/DMSO (mean)
smiles,measurement,setting,value
CCC(C)N[C@H]1CS(=O)(=O)C[C@@H]1S(=O)(=O)c1ccc(Cl)cc1 (stereo partly shown) [Compound D121],"Firefly F4, cmpd/DMSO (mean)",NR2F6; 0.5 uM,0.9
same,"Firefly F4, cmpd/DMSO (mean)",NR2F6; 2 uM,1.9
same,"Firefly F4, cmpd/DMSO (mean)",NR2F6; 10 uM,4.9
same,"Firefly F4, cmpd/DMSO (mean)",NR2F6; 40 uM,1.9
same,"F4, Firefly/Renilla for S/B(F4) > 3","NR2F6; 1% FBS, 10 uM",2.3
same,"Firefly, F4/pGL4 for S/B(F4) > 3","NR2F6; 1% FBS, 10 uM",1.2
same,"F4, Firefly/Renilla for S/B(F4) > 3","NR2F6; 10% FBS, 10 uM",2.4
same,"Firefly, F4/pGL4 for S/B(F4) > 3","NR2F6; 10% FBS, 10 uM",1.4
same,"F4, Firefly/Renilla for S/B(F4) > 3","NR2F6; 10% FBS, 40 uM",1.3
same,"Firefly, F4/pGL4 for S/B(F4) > 3","NR2F6; 10% FBS, 40 uM",2.9
same,"Firefly, F4, 1% FBS, cmpd/DMSO (mean)","NR2F6; 1% FBS, 0.5 uM",1.5
same,"Firefly, F4, 1% FBS, cmpd/DMSO (mean)","NR2F6; 1% FBS, 2 uM",1.2
same,"Firefly, F4, 1% FBS, cmpd/DMSO (mean)","NR2F6; 1% FBS, 10 uM",3.9
same,"Firefly, F4, 1% FBS, cmpd/DMSO (mean)","NR2F6; 1% FBS, 40 uM",0.1
same,"Firefly, F4, 10% FBS, cmpd/DMSO (mean)","NR2F6; 10% FBS, 0.5 uM",1.2
same,"Firefly, F4, 10% FBS, cmpd/DMSO (mean)","NR2F6; 10% FBS, 2 uM",1.4
same,"Firefly, F4, 10% FBS, cmpd/DMSO (mean)","NR2F6; 10% FBS, 10 uM",3.3
same,"Firefly, F4, 10% FBS, cmpd/DMSO (mean)","NR2F6; 10% FBS, 40 uM",3.4
same,fold induction at 0.5 µM,HEK293 pGL4; [1],1.4
same,fold induction at 2 µM,HEK293 pGL4; [2],1.6
same,fold induction at 10 µM,HEK293 pGL4; [3],3.9
same,fold induction at 40 µM,HEK293 pGL4; [4],0.7
same,fold induction at 0.5 µM,HEK293 pGL4; [5],1.1
same,fold induction at 2 µM,HEK293 pGL4; [6],1.1
same,fold induction at 10 µM,HEK293 pGL4; [7],3.2
same,fold induction at 40 µM,HEK293 pGL4; [8],0.8
same,fold induction at 0.5 µM,HEK293 pGL4; [9],1.1
same,fold induction at 2 µM,HEK293 pGL4; [10],1.4
same,fold induction at 10 µM,HEK293 pGL4; [11],2.4
same,fold induction at 40 µM,HEK293 pGL4; [12],1.2
same,"Firefly LBD, cmpd/DMSO (mean)",NR2F6 LBD; 0.5 uM,1.0
same,"Firefly LBD, cmpd/DMSO (mean)",NR2F6 LBD; 2 uM,1.5
same,"Firefly LBD, cmpd/DMSO (mean)",NR2F6 LBD; 10 uM,3.6
same,"Firefly LBD, cmpd/DMSO (mean)",NR2F6 LBD; 40 uM,0.7
same,fold induction at 0.5 µM,Renilla; [13],1.2
same,fold induction at 2 µM,Renilla; [13],1.1
same,fold induction at 10 µM,Renilla; [13],1.5
same,fold induction at 40 µM,Renilla; [13],1.7
same,fold induction at 0.5 µM,Renilla; [14],1.1
same,fold induction at 2 µM,Renilla; [14],1.4
same,fold induction at 10 µM,Renilla; [14],1.7
same,fold induction at 40 µM,Renilla; [14],1.3
same,fold induction at 0.5 µM,Renilla; [15],1
same,fold induction at 2 µM,Renilla; [15],1.1
same,fold induction at 10 µM,Renilla; [15],1.4
same,fold induction at 40 µM,Renilla; [15],2.6
O=S1(=O)C[C@H](N2CCCCC2)[C@@H](S(=O)(=O)c2ccc(Cl)cc2)C1 [Compound D123],"Firefly F4, cmpd/DMSO (mean)",NR2F6; 0.5 uM,1.8
same,"Firefly F4, cmpd/DMSO (mean)",NR2F6; 2 uM,2.5
same,"Firefly F4, cmpd/DMSO (mean)",NR2F6; 10 uM,7.1
same,"Firefly F4, cmpd/DMSO (mean)",NR2F6; 40 uM,0.7
same,"F4, Firefly/Renilla for S/B(F4) > 3","NR2F6; 1% FBS, 10 uM",2.7
same,"Firefly, F4/pGL4 for S/B(F4) > 3","NR2F6; 1% FBS, 10 uM",1.6
same,"F4, Firefly/Renilla for S/B(F4) > 3","NR2F6; 10% FBS, 10 uM",4.0
same,"Firefly, F4/pGL4 for S/B(F4) > 3","NR2F6; 10% FBS, 10 uM",2.5
same,"Firefly, F4, 1% FBS, cmpd/DMSO (mean)","NR2F6; 1% FBS, 0.5 uM",1.3
same,"Firefly, F4, 1% FBS, cmpd/DMSO (mean)","NR2F6; 1% FBS, 2 uM",2.1
same,"Firefly, F4, 1% FBS, cmpd/DMSO (mean)","NR2F6; 1% FBS, 10 uM",4.4
same,"Firefly, F4, 1% FBS, cmpd/DMSO (mean)","NR2F6; 1% FBS, 40 uM",0.2
same,"Firefly, F4, 10% FBS, cmpd/DMSO (mean)","NR2F6; 10% FBS, 0.5 uM",1.1
same,"Firefly, F4, 10% FBS, cmpd/DMSO (mean)","NR2F6; 10% FBS, 2 uM",2.0
same,"Firefly, F4, 10% FBS, cmpd/DMSO (mean)","NR2F6; 10% FBS, 10 uM",7.5
same,"Firefly, F4, 10% FBS, cmpd/DMSO (mean)","NR2F6; 10% FBS, 40 uM",0.8
same,"Activity, cmpd/DMSO",NR2F6; Table 31,6.1
same,fold induction at 0.5 µM,HEK293 pGL4; [1],1.2
same,fold induction at 2 µM,HEK293 pGL4; [2],1.7
same,fold induction at 10 µM,HEK293 pGL4; [3],3.4
same,fold induction at 40 µM,HEK293 pGL4; [4],0.6
same,fold induction at 0.5 µM,HEK293 pGL4; [5],1.1
same,fold induction at 2 µM,HEK293 pGL4; [6],1.8
same,fold induction at 10 µM,HEK293 pGL4; [7],2.7
same,fold induction at 40 µM,HEK293 pGL4; [8],0.8
same,fold induction at 0.5 µM,HEK293 pGL4; [9],1.2
same,fold induction at 2 µM,HEK293 pGL4; [10],1.6
same,fold induction at 10 µM,HEK293 pGL4; [11],3
same,fold induction at 40 µM,HEK293 pGL4; [12],0.8
same,"Firefly LBD, cmpd/DMSO (mean)",NR2F6 LBD; 0.5 uM,1.0
same,"Firefly LBD, cmpd/DMSO (mean)",NR2F6 LBD; 2 uM,1.9
same,"Firefly LBD, cmpd/DMSO (mean)",NR2F6 LBD; 10 uM,4.9
same,"Firefly LBD, cmpd/DMSO (mean)",NR2F6 LBD; 40 uM,0.4
same,fold induction at 0.5 µM,Renilla; [13],1.1
same,fold induction at 2 µM,Renilla; [13],1.4
same,fold induction at 10 µM,Renilla; [13],1.9
same,fold induction at 40 µM,Renilla; [13],0.3
same,fold induction at 0.5 µM,Renilla; [14],1.1
same,fold induction at 2 µM,Renilla; [14],1.4
same,fold induction at 10 µM,Renilla; [14],1.6
same,fold induction at 40 µM,Renilla; [14],0.1
same,fold induction at 0.5 µM,Renilla; [15],0.9
same,fold induction at 2 µM,Renilla; [15],1.1
same,fold induction at 10 µM,Renilla; [15],1.9
same,fold induction at 40 µM,Renilla; [15],0.2
